Test results reported in paper PMC5622171 (Nature Communications, 2017).

Experiments:
CYP3A4 = test: Paclitaxel metabolism in primary human hepatocytes (LC/MS/MS); assay type: in vitro ADME; conditions: 10 µM SPA70, 1 µM PTX, 24 or 48 h
Description: Calibration and quality-control samples were prepared.

hPXR = biological target: T1, hPXR (Homo sapiens, UniProt O75469); test: hPXR transactivation assay, HepG2 stable cell line, agonistic mode
T1 sequence (O75469 1-434): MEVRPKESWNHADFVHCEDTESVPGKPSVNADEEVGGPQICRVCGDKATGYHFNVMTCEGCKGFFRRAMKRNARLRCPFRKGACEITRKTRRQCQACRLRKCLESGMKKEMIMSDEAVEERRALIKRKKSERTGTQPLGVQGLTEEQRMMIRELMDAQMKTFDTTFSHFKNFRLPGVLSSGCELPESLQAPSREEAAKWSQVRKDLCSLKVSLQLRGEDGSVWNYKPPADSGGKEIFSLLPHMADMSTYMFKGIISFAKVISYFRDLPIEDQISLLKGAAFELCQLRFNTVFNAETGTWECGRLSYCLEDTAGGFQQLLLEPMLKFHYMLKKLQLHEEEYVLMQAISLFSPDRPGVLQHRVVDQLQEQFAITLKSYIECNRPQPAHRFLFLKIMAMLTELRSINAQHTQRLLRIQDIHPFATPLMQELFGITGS

LS1034 cells = test: CellTiter-Glo cytotoxicity assay; conditions: 10 µM SPA70
GRK7 = biological target: T2, GRK7 (Homo sapiens, UniProt Q8WTQ7); test: KINOMEscan kinase profiling; assay type: binding; conditions: read-out: %Inhibition by 10 μM SPA70
T2 construct: purchased DiscoverX (Ambit Biosciences) KINOMEscan
T2 sequence (Q8WTQ7 whole entry): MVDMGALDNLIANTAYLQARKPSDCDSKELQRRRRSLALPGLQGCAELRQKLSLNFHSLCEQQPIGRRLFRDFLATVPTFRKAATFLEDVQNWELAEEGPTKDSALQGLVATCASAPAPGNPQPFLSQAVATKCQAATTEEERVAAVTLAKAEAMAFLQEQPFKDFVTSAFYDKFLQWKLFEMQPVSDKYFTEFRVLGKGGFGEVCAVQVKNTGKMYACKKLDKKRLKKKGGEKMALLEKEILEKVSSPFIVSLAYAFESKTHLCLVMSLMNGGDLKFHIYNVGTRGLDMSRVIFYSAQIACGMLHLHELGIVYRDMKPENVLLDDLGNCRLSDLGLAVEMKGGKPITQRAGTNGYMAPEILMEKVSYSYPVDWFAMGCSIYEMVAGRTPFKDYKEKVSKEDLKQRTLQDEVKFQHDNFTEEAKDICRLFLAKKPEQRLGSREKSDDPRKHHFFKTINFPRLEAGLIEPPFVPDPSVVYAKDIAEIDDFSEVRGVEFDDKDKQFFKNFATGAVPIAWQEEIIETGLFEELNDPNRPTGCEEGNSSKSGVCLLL
In short: (§1)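 KINOMEscan profiling followed a published protocol. Kinases whose inhibition exceeded a set cut-off were then tested in a dilution series beginning at 30 µM.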

MEK2 = biological target: T3, MEK2 (Homo sapiens, UniProt P36507); test: KINOMEscan kinase profiling; assay type: binding; conditions: read-out: %Inhibition by 10 μM SPA70
T3 construct: purchased DiscoverX (Ambit Biosciences) KINOMEscan
In short: as §1

HIPK3 = biological target: T4, HIPK3 (Homo sapiens, UniProt Q9H422); test: KINOMEscan kinase profiling; assay type: binding; conditions: read-out: %Inhibition by 10 μM SPA70
T4 construct: purchased DiscoverX (Ambit Biosciences) KINOMEscan
In short: as §1

ANKK1 = biological target: T5, ANKK1 (Homo sapiens, UniProt Q8NFD2); test: KINOMEscan kinase profiling; assay type: binding; conditions: read-out: %Inhibition by 10 μM SPA70
T5 construct: purchased DiscoverX (Ambit Biosciences) KINOMEscan
T5 sequence (Q8NFD2 whole entry): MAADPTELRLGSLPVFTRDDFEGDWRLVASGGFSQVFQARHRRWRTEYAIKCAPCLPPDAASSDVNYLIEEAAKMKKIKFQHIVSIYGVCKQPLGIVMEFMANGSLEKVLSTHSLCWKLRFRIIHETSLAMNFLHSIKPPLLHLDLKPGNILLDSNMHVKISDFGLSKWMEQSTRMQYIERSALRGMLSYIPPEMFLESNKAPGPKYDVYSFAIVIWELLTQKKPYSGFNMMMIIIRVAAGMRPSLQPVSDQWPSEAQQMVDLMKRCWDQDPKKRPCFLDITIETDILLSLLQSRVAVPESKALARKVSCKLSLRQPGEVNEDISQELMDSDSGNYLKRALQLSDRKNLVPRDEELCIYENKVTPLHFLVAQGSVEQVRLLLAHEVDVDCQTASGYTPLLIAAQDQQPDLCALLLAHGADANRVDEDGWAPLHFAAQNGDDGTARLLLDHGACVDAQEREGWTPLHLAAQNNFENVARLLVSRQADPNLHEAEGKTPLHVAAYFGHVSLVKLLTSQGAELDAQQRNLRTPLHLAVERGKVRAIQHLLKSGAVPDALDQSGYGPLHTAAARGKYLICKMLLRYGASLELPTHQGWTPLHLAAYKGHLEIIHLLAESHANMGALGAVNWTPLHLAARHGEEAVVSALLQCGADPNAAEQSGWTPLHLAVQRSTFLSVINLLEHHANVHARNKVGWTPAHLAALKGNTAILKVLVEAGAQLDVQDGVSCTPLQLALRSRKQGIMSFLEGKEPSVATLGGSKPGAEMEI
In short: as §1

ACVR1 = biological target: T6, ACVR1 (Homo sapiens, UniProt Q04771); test: KINOMEscan kinase profiling; assay type: binding; conditions: read-out: %Inhibition by 10 μM SPA70
T6 construct: purchased DiscoverX (Ambit Biosciences) KINOMEscan
In short: as §1

SRPK1 = biological target: T7, SRPK1 (Homo sapiens, UniProt Q96SB4); test: KINOMEscan kinase profiling; assay type: binding; conditions: read-out: %Inhibition by 10 μM SPA70
T7 construct: purchased DiscoverX (Ambit Biosciences) KINOMEscan
T7 sequence (Q96SB4 whole entry): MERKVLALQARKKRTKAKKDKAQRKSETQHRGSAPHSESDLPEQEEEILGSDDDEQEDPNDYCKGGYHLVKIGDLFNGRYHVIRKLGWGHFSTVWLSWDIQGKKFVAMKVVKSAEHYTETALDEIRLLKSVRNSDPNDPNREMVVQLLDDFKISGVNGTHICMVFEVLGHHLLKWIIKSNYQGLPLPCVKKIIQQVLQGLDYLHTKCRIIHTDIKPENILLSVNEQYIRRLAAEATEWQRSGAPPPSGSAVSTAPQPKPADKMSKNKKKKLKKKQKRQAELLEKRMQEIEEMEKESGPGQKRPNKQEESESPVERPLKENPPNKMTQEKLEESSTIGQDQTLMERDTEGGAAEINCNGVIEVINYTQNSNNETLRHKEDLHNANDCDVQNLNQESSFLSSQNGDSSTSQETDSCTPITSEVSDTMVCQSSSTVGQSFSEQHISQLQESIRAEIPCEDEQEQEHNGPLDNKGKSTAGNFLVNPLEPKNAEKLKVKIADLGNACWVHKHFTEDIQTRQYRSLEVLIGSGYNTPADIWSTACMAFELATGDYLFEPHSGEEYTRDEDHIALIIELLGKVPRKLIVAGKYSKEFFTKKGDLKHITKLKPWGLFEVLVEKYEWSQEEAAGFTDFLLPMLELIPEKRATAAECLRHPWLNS
In short: as §1

NEK6 = biological target: T8, NEK6 (Homo sapiens, UniProt Q9HC98); test: KINOMEscan kinase profiling; assay type: binding; conditions: read-out: %Inhibition by 10 μM SPA70
T8 construct: purchased DiscoverX (Ambit Biosciences) KINOMEscan
In short: as §1

PFTAIRE2 = biological target: T9, PFTAIRE2 (Homo sapiens, UniProt Q96Q40); test: KINOMEscan kinase profiling; assay type: binding; conditions: read-out: %Inhibition by 10 μM SPA70
T9 construct: purchased DiscoverX (Ambit Biosciences) KINOMEscan
In short: as §1

MET = biological target: T10, MET (Homo sapiens, UniProt P08581); test: KINOMEscan kinase profiling; assay type: binding
T10 construct: purchased DiscoverX (Ambit Biosciences) KINOMEscan
In short: as §1

FER = biological target: T11, FER (Homo sapiens, UniProt P16591); test: KINOMEscan kinase profiling; assay type: binding; conditions: read-out: %Inhibition by 10 μM SPA70
T11 construct: purchased DiscoverX (Ambit Biosciences) KINOMEscan
In short: as §1

PLK1 = biological target: T12, PLK1 (Homo sapiens, UniProt P53350); test: KINOMEscan kinase profiling; assay type: binding; conditions: read-out: %Inhibition by 10 μM SPA70
T12 construct: purchased DiscoverX (Ambit Biosciences) KINOMEscan
In short: as §1

BIKE = biological target: T13, BIKE (Homo sapiens, UniProt Q9NSY1); test: KINOMEscan kinase profiling; assay type: binding; conditions: read-out: %Inhibition by 10 μM SPA70
T13 construct: purchased DiscoverX (Ambit Biosciences) KINOMEscan
In short: as §1

MYLK = biological target: T14, MYLK (Homo sapiens, UniProt Q15746); test: KINOMEscan kinase profiling; assay type: binding; conditions: read-out: %Inhibition by 10 μM SPA70
T14 construct: purchased DiscoverX (Ambit Biosciences) KINOMEscan
In short: as §1

FGFR4 = biological target: T15, FGFR4 (Homo sapiens, UniProt P22455); test: KINOMEscan kinase profiling; assay type: binding; conditions: read-out: %Inhibition by 10 μM SPA70
T15 construct: purchased DiscoverX (Ambit Biosciences) KINOMEscan
In short: as §1

NEK3 = biological target: T16, NEK3 (Homo sapiens, UniProt P51956); test: KINOMEscan kinase profiling; assay type: binding; conditions: read-out: %Inhibition by 10 μM SPA70
T16 construct: purchased DiscoverX (Ambit Biosciences) KINOMEscan
In short: as §1

DCAMKL1 = biological target: T17, DCAMKL1 (Homo sapiens, UniProt O15075); test: KINOMEscan kinase profiling; assay type: binding
T17 construct: purchased DiscoverX (Ambit Biosciences) KINOMEscan
In short: as §1

PAK3 = biological target: T18, PAK3 (Homo sapiens, UniProt O75914); test: KINOMEscan kinase profiling; assay type: binding; conditions: read-out: %Inhibition by 10 μM SPA70
T18 construct: purchased DiscoverX (Ambit Biosciences) KINOMEscan
T18 sequence (O75914 whole entry): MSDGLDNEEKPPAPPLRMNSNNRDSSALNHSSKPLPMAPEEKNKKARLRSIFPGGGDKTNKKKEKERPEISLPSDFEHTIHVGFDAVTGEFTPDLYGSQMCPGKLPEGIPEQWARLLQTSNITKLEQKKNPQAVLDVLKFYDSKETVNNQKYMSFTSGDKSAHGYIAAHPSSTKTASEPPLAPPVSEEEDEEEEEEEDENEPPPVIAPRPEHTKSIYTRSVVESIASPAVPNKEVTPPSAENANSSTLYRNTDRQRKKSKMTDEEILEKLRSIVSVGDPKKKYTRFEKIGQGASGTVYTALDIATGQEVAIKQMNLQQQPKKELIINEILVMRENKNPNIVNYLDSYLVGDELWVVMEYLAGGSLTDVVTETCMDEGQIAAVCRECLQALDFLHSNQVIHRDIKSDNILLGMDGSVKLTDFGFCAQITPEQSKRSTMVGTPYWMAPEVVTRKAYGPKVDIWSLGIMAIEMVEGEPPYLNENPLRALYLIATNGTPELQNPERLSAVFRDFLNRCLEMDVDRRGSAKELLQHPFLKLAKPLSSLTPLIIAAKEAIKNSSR
In short: as §1

[1] = biological target: T19, RSK4(Kin.Dom.2-C-terminal) (Homo sapiens, UniProt Q9UK32); test: KINOMEscan kinase profiling; assay type: binding
T19 construct: RSK4(Kin.Dom.2-C-terminal); purchased DiscoverX (Ambit Biosciences) KINOMEscan
T19 sequence (Q9UK32 401-745 limits assumed): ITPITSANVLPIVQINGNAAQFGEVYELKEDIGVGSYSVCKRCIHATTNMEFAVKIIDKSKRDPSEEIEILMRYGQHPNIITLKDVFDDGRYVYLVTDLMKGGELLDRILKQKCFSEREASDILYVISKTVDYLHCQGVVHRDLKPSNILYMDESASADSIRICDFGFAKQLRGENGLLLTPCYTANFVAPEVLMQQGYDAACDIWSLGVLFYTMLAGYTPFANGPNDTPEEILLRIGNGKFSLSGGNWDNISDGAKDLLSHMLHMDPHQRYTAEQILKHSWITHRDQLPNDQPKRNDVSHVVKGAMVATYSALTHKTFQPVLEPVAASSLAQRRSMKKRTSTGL
In short: as §1

ROCK2 = biological target: T20, ROCK2 (Homo sapiens, UniProt O75116); test: KINOMEscan kinase profiling; assay type: binding; conditions: read-out: %Inhibition by 10 μM SPA70
T20 construct: purchased DiscoverX (Ambit Biosciences) KINOMEscan
T20 sequence (O75116 whole entry): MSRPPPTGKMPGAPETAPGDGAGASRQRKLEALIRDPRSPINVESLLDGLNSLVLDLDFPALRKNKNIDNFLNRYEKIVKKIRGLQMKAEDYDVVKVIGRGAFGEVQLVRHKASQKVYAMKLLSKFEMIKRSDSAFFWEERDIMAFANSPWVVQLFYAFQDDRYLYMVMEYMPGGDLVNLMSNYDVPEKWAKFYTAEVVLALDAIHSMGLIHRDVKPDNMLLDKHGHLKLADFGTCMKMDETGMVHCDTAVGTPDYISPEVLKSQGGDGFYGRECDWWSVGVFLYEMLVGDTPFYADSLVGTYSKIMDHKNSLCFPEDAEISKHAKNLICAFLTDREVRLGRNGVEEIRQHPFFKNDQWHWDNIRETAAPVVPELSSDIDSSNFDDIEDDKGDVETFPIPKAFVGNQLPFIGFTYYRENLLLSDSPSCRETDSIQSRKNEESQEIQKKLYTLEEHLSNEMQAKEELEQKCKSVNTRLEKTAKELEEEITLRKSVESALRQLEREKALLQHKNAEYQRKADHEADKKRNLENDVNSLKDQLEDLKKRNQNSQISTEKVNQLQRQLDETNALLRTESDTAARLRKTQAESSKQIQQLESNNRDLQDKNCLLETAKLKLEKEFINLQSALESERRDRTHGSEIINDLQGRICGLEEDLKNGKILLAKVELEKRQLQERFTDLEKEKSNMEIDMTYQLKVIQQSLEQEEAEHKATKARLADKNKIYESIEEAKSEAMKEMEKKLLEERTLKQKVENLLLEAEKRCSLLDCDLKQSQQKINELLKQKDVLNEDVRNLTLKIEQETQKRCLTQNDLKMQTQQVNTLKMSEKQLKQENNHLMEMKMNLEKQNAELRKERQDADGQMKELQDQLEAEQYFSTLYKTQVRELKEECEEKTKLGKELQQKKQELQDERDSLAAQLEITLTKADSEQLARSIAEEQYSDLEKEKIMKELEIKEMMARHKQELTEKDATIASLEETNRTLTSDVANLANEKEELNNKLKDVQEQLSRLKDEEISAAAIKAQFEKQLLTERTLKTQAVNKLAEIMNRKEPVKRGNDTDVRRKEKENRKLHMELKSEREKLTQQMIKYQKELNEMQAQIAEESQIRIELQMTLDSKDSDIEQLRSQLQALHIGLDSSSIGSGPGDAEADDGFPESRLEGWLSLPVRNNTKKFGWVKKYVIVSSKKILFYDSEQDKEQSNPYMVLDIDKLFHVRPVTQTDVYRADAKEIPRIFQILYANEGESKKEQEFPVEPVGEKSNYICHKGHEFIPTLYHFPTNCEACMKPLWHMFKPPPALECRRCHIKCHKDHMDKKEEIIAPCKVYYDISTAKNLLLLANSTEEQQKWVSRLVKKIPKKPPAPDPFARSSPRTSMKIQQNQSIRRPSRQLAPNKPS
In short: as §1

PRKX = biological target: T21, PRKX (Homo sapiens, UniProt P51817); test: KINOMEscan kinase profiling; assay type: binding; conditions: read-out: %Inhibition by 10 μM SPA70
T21 construct: purchased DiscoverX (Ambit Biosciences) KINOMEscan
T21 sequence (P51817 whole entry): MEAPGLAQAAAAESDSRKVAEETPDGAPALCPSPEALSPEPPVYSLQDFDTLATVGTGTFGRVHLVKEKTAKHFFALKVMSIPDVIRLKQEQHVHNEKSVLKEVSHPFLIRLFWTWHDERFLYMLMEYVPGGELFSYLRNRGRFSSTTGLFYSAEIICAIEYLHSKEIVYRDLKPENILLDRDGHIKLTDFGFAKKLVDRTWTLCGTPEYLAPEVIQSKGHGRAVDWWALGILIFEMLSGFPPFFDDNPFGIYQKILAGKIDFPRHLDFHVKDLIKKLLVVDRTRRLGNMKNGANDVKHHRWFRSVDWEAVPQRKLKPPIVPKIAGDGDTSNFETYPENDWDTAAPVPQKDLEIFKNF
In short: as §1

PIM1 = biological target: T22, PIM1 (Homo sapiens, UniProt P11309); test: KINOMEscan kinase profiling; assay type: binding; conditions: read-out: %Inhibition by 10 μM SPA70
T22 construct: purchased DiscoverX (Ambit Biosciences) KINOMEscan
In short: as §1

SgK110 = biological target: T23, SgK110 (Homo sapiens, UniProt P0C264); test: KINOMEscan kinase profiling; assay type: binding; conditions: read-out: %Inhibition by 10 μM SPA70
T23 construct: purchased DiscoverX (Ambit Biosciences) KINOMEscan
T23 sequence (P0C264 whole entry): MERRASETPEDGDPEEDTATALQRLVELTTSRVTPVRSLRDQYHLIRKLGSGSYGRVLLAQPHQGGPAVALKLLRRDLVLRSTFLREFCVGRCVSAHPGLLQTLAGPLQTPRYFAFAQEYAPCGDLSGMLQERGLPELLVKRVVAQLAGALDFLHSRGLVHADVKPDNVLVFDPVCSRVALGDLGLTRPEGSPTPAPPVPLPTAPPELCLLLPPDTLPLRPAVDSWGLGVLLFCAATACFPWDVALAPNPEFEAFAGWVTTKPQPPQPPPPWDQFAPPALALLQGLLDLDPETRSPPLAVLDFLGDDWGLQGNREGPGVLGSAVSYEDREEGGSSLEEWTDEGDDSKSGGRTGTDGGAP
In short: as §1

EPHA7 = biological target: T24, EPHA7 (Homo sapiens, UniProt Q15375); test: KINOMEscan kinase profiling; assay type: binding; conditions: read-out: %Inhibition by 10 μM SPA70
T24 construct: purchased DiscoverX (Ambit Biosciences) KINOMEscan
In short: as §1

CDK7 = biological target: T25, CDK7 (Homo sapiens, UniProt P50613); test: KINOMEscan kinase profiling; assay type: binding; conditions: read-out: %Inhibition by 10 μM SPA70
T25 construct: purchased DiscoverX (Ambit Biosciences) KINOMEscan
In short: as §1

MEK6 = biological target: T26, MEK6 (Homo sapiens, UniProt P52564); test: KINOMEscan kinase profiling; assay type: binding; conditions: read-out: %Inhibition by 10 μM SPA70
T26 construct: purchased DiscoverX (Ambit Biosciences) KINOMEscan
In short: as §1

BMPR1A = biological target: T27, BMPR1A (Homo sapiens, UniProt P36894); test: KINOMEscan kinase profiling; assay type: binding; conditions: read-out: %Inhibition by 10 μM SPA70
T27 construct: purchased DiscoverX (Ambit Biosciences) KINOMEscan
In short: as §1

PHKG2 = biological target: T28, PHKG2 (Homo sapiens, UniProt P15735); test: KINOMEscan kinase profiling; assay type: binding; conditions: read-out: %Inhibition by 10 μM SPA70
T28 construct: purchased DiscoverX (Ambit Biosciences) KINOMEscan
In short: as §1

CSNK1E = biological target: T29, CSNK1E (Homo sapiens, UniProt P49674); test: KINOMEscan kinase profiling; assay type: binding; conditions: read-out: %Inhibition by 10 μM SPA70
T29 construct: purchased DiscoverX (Ambit Biosciences) KINOMEscan
In short: as §1

Hepa 1-6 cells = test: One- and 3-day cytotoxicity assay; assay type: cell-based, mouse; conditions: Hepa 1-6, one- and 3-day
Description: After the plated had been incubated for 24 or 72 h at 37 °C, the cytotoxicity was determined using a CellTiter-Glo luminescent cell viability assay (Promega). […] The final DMSO concentration was 0.5% for all wells.

[2] = system: LS180 cells with stable exogenous expression of hPXR; test: CellTiter-Glo cytotoxicity assay; conditions: 10 µM SPA70

SMILES: COc1ccc(OC)c(-n2nnc(S(=O)(=O)c3ccc(C(C)(C)C)cc3)c2C)c1 [SPA70]
- Effect on metabolism of paclitaxel to 3′-p-hydroxypaclitaxel or 6α-hydroxypaclitaxel (CYP3A4): substantially blocked
- Effect on basal activity of hPXR (hPXR): very weakly inhibited the basal activity
- Sensitization of LS1034 cells to paclitaxel and vincristine (LS1034 cells): sensitized LS1034 cells to both paclitaxel and vincristine
- inhibition at 10 µM (GRK7): 0%
- inhibition at 10 µM (MEK2): 4%
- inhibition at 10 µM (HIPK3): 10%
- inhibition at 10 µM (ANKK1): 0%
- inhibition at 10 µM (ACVR1): 0%
- inhibition at 10 µM (SRPK1): 0%
- inhibition at 10 µM (NEK6): 0%
- inhibition at 10 µM (PFTAIRE2): 0%
- %Inhibition by 10 μM SPA70 (MET): 0%
- inhibition at 10 µM (FER): 19%
- inhibition at 10 µM (PLK1): 0%
- inhibition at 10 µM (BIKE): 35%
- inhibition at 10 µM (MYLK): 0%
- inhibition at 10 µM (FGFR4): 5%
- inhibition at 10 µM (NEK3): 0%
- %Inhibition by 10 μM SPA70 (DCAMKL1): 0%
- inhibition at 10 µM (PAK3): 0%
- %Inhibition by 10 μM SPA70 [1]: 16%
- inhibition at 10 µM (ROCK2): 13%
- inhibition at 10 µM (PRKX): 8%
- inhibition at 10 µM (PIM1): 0%
- inhibition at 10 µM (SgK110): 0%
- inhibition at 10 µM (EPHA7): 0%
- inhibition at 10 µM (CDK7): 19%
- inhibition at 10 µM (MEK6): 0%
- inhibition at 10 µM (BMPR1A): 2%
- inhibition at 10 µM (PHKG2): 0%
- inhibition at 10 µM (CSNK1E): 0%
- Cytotoxicity (Hepa 1-6 cells): marginal cytotoxicity
- Effect on paclitaxel sensitivity of LS180 cells with exogenous hPXR [2]: re-sensitized the cells to paclitaxel
